The target in series [1] is T1, soybean LOX-1 (Glycine max, UniProt P08170).
T1 sequence (P08170 1-839): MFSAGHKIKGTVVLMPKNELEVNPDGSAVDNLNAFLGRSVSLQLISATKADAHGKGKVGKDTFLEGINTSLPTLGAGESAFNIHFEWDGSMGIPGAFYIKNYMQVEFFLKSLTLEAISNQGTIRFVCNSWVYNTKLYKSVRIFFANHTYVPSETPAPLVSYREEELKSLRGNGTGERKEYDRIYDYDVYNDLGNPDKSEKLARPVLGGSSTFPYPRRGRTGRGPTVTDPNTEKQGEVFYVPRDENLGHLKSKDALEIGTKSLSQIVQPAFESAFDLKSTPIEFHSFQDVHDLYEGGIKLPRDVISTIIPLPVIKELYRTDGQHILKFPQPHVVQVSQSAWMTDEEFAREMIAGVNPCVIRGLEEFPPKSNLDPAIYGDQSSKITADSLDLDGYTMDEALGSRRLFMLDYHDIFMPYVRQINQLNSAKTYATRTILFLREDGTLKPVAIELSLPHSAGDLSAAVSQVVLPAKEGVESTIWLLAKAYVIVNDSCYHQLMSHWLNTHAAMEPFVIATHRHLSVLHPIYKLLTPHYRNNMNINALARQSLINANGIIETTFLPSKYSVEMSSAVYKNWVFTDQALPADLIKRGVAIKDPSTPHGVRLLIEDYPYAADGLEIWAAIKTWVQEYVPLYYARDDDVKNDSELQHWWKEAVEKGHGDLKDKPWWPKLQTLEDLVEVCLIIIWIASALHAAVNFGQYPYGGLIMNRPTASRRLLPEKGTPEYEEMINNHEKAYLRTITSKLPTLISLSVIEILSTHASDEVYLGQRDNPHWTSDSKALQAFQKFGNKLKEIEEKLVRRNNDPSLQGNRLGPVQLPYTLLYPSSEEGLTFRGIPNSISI
Nature of the series: In vitro soybean 15-lipoxygenase (LOX) inhibition assay. The conditions noted are these: for inhibition at 100 µg/mL: read-out: % Inhibition (100 μg/mL); for solubility of the compound in the 15-LOX assay: assay could not be carried out. The procedure: Briefly, sodium phosphate buffer (160 μL, 100 mM, pH 8.0), test sample (10 μL), and soybean 15-LOX (1.13.11.12) type I-B solution (20 μL, 320 U/well) were mixed and incubated at room temperature for 15 min. The substrate linoleic acid (10 μL, 0.6 mM) solution was added to initiate the reaction. End product from the enzymatic conversion was measured at absorbance of 234 nm over a period of 6 min and the assay was performed in triplicate. Dimethyl sulfoxide (DMSO) was used as a solvent to dissolve test samples and reference standard. […] IC50 values were calculated by the nonlinear regression fitting curve of GraphPad Prism 5. The percentage of inhibition can be calculated by the following formula [10, 11]: Inhibitory% = ODcontrol−ODsample/ODcontrol

Series [2] addresses T1, soybean LOX-1. Also noted: purchased; method as in PMID 25100256. The conditions noted are these: data published in previous work, read-out: IC50 Value (μM) Mean ± SEM, cited from earlier work.
Series [3] deals with T1, soybean LOX-1. Description: Enzyme kinetics study (Michaelis–Menten, Lineweaver–Burk). It is filed as biochemical. On the set-up: purchased. To be noted: for type of inhibition: Lineweaver–Burk plot; for Ki: from slope of Lineweaver–Burk plot vs inhibitor concentration, read-out: Ki (inhibitor constant). The procedure: Since compounds 3e and tHGA (3a) are competitive inhibitors, there were no changes in maximal velocity.
Kinetics study: Enzyme kinetics was performed similar to the above inhibition assay with slight modification. […] About 10 μL each of 4 linoleic acid substrate concentrations (0.2, 0.3, 0.4, and 0.5 mM) was added to initiate the enzymatic conversion. End product of the reaction was measured at 234 nm over a period of 10 min, with readings taken every 30 s. The type of inhibition (competitive, uncompetitive, noncompetitive) was determined by nonlinear regression Michaelis–Menten enzyme kinetics and the corresponding Lineweaver–Burk plots using 3 concentrations of each inhibitor: 0, 1.57, and 3.13 μg/mL. All experiments were performed in triplicate and the average values and standard errors were plotted. The Km and Vmax values were calculated from the nonlinear regression fitting curve of GraphPad Prism 5.

Series [4] concerns allergic airway inflammation. Also noted: method as in PMID 22266348. The conditions noted are these: acute murine model; compared with Zileuton; cited from earlier work.

Like-named read-outs stand apart in the source and are kept apart here.

`CCCC(=O)c1c(O)cc(O)c(C/C=C(\C)CCC=C(C)C)c1O` [Compound 3d, (E)-1-(3-(3,7-dimethylocta-2,6-dienyl)-2,4,6-trihydroxyphenyl)butan-1-one]: the melting point fell in the range of 116 to 118 °C. Further, on soybean LOX-1 [1], the IC50 is 15.3 ± 0.5 µM and the inhibition at 100 µg/mL came out at 90.7 ± 5%.
As to `CCCCC(=O)c1c(O)cc(O)c(C/C=C(\C)CCC=C(C)C)c1O` [Compound 3e, (E)-1-(3-(3,7-dimethylocta-2,6-dienyl)-2,4,6-trihydroxyphenyl)pentan-1-one], the “fold less active than the standard drug NDGA” value at soybean LOX-1 [1] (IC50 compared with NDGA) is reported as 100 fold. Moreover, the IC50 at soybean LOX-1 [2] is 10.3 µM. Also, at soybean LOX-1 [3], the type of inhibition entry is given as “competitive” and the Ki came out at 36.1 µM.
As to `CC(C)=CCc1c(O)cc(O)c(C(=O)C2CCCCC2)c1O` [Compound 4f, Cyclohexyl(2,4,6-trihydroxy-3-(3-methylbut-2-enyl)phenyl)methanone], at soybean LOX-1 [1], 52.6 ± 1 µM corresponded to half-maximal inhibition (IC50) and the inhibition at 100 µg/mL was 93.7 ± 3.8%.
For the molecule `CC(C)=CCC/C(C)=C/Cc1c(O)cc(O)c(C(=O)C(C)C)c1O` [Compound 3b], the IC50 at soybean LOX-1 [2] was 27.6 ± 3.6 µM.
Consider `COc1cc(OC)c(C(C)=O)c(O)c1CC=C(C)C` [Compound 6a, 1-(2-hydroxy-4,6-dimethoxy-3-(3-methylbut-2-enyl)phenyl)ethanone], for which the melting point fell in the range of 97 to 99 °C. Also, the “solubility of the compound in the 15-LOX assay” value (“solubility of the compound” below) at soybean LOX-1 [1] was “insolubility”.
As for `CC(C)=CCc1c(O)cc(O)c(C(=O)C(C)C)c1O` [Compound 4b, 2-methyl-1-(2,4,6-trihydroxy-3-(3-methylbut-2 enyl)phenyl)propan-1-one], at soybean LOX-1 [1], the IC50 was determined as 53.7 ± 0.7 µM and the inhibition at 100 µg/mL was found to be 82.5 ± 7.3%.
`CCCCC(=O)c1c(OC)cc(OC)c(CC=C(C)C)c1O` [Compound 6e, 1-(2-hydroxy-4,6-dimethoxy-3-(3-methylbut-2-enyl)phenyl)pentan-1-one] gave a melting point of 84 to 86 °C. Also, the “solubility of the compound” value at soybean LOX-1 [1] was “insolubility”.
`CC(C)=CCc1c(O)cc(O)c(C(=O)/C=C/c2ccccc2)c1O` [Compound 4g, (E)-3-phenyl-1-(2,4,6-trihydroxy-3-(3-methylbut-2-enyl)phenyl)prop-2-en-1-one] registered a melting point of 203 to 205 °C. Moreover, at soybean LOX-1 [1], the IC50 was 95.4 ± 4 µM and the inhibition at 100 µg/mL worked out at 95.2 ± 3.2%.
As to `CCC(=O)c1c(O)cc(O)c(C/C=C(\C)CCC=C(C)C)c1O` [Compound 3c, (E)-1-(3-(3,7-dimethylocta-2,6-dienyl)-2,4,6-trihydroxyphenyl)propan-1-one], on soybean LOX-1 [2], the IC50 is 12.3 ± 0.6 µM.
In the case of `COc1cc(OC)c(C(C)=O)c(O)c1C/C=C(\C)CCC=C(C)C` [Compound 5a, (E)-1-(3-(3,7-dimethylocta-2,6-dienyl)-2-hydroxy-4,6-dimethoxyphenyl)ethanone], the melting point lay in the range of 72 to 74 °C. Moreover, at soybean LOX-1 [1], the “solubility of the compound” value is recorded as “insolubility”.
With `CCCCC(=O)c1c(OC)cc(OC)c(C/C=C(\C)CCC=C(C)C)c1O` [Compound 5e, (E)-1-(3-(3,7-dimethylocta-2,6-dienyl)-2-hydroxy-4,6-dimethoxyphenyl)pentan-1-one], the “solubility of the compound” value at soybean LOX-1 [1] was “insolubility”.
Take `CC(=O)c1c(O)cc(O)c(C/C=C(\C)CCC=C(C)C)c1O` [Compound 3a, 2,4,6-Trihydroxy-3-geranylacetophenone]: the IC50 on soybean LOX-1 [2] (listed as 3a (tHGA)) is 23.6 ± 1.7 µM. In addition, the “prevention of allergic airway inflammation” value in series [4] is on record as “as effective as Zileuton”. For the same molecule, on soybean LOX-1 [3], the type of inhibition result was “competitive” and the Ki worked out at 41.1 µM.
`CCC(=O)c1c(O)cc(O)c(CC=C(C)C)c1O` [Compound 4c, 1-(2,4,6-trihydroxy-3-(3-methylbut-2-enyl)phenyl)propan-1-one] returned a melting point of 138 to 140 °C. Moreover, on soybean LOX-1 [1], the midpoint of inhibition, the IC50, lay at 61 ± 1.1 µM and the inhibition at 100 µg/mL is 78.1 ± 3.9%.
Turning to `CC(C)=CCC/C(C)=C/Cc1c(O)cc(O)c(C(=O)C2CCCCC2)c1O` [Compound 3f], the IC50 on soybean LOX-1 [2] was 26.3 ± 1.3 µM.
Molecule `CCCCC(=O)c1c(O)cc(O)c(CC=C(C)C)c1O` [Compound 4e, 1-(2,4,6-trihydroxy-3-(3-methylbut-2-enyl)phenyl)pentan-1-one] returned a melting point of 133 to 135 °C. Moreover, on soybean LOX-1 [1], inhibition was half-maximal at 35.1 ± 1.3 µM (IC50) and the inhibition at 100 µg/mL worked out at 79.4 ± 6.7%.
For `CCCC(=O)c1c(O)cc(O)c(CC=C(C)C)c1O` [Compound 4d, 1-(2,4,6-trihydroxy-3-(3-methylbut-2-enyl)phenyl)butan-1-one], on soybean LOX-1 [1], the IC50 amounted to 39.5 ± 1.2 µM and the inhibition at 100 µg/mL stood at 86.2 ± 6.9%.
With `CC(=O)c1c(O)cc(O)c(CC=C(C)C)c1O` [Compound 4a, 1-(2,4,6-trihydroxy-3-(3-methylbut-2-enyl)phenyl)ethanone], at soybean LOX-1 [1], the IC50 turned out to be 72.1 ± 1.2 µM and the inhibition at 100 µg/mL is 94.8 ± 5.2%.

(Values after publication PMC6222424, “Hits-to-Lead Optimization of the Natural Compound 2,4,6-Trihydroxy-3-geranyl-acetophenone (tHGA) as a Potent LOX Inhibitor: Synthesis, Structure-Activity Relationship (SAR) Study, and Computational Assignment” (Molecules : A Journal of Synthetic Chemistry and Natural …, 2018).)
